Key:
SEM cells [1] = test: cell viability relative to DMSO control; higher = less cytotoxic; details: HPLM + 10% dialyzed FBS, 48 h
In short: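 Viability, reported as a per-plate percentage of DMSO wells with cell-free wells as background, came from CellTiter-Glo One luminescence. Reading took place after 48 h at 37°C. Before that, NOMO1 or SEM (500 cells/well) or P12-Ichikawa (1000 cells/well) leukemia cells, adapted for at least four passages in each medium, were seeded in 1536-well plates (5 μl) and pin-dosed with library compounds in DMSO, 47 μM to 0.79 nM over 11 threefold points.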

NOMO1 = test: AUC of viability dose-response curve (% viability x log10 dose units); higher = less sensitive; details: 48 h
In short: (§1)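 Library compounds in DMSO were applied for 48 h at 37°C at 11 threefold doses (47 μM to 0.79 nM) to medium-adapted leukemia cells in 1536-well plates holding 500 or 1000 cells/well. Luminescence from CellTiter-Glo One was normalised plate by plate against DMSO and cell-free wells. Area under the curve came from trapezoidal integration of a log-logistic fit, after scaling curves that rose above full viability and discarding those that failed quality control. The fit had four parameters and used log10 doses.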

SEM cells [2] = test: as above; details: 48 h
In short: as §1

P12-Ichikawa = test: as above; details: 48 h
In short: as §1

[3] = RPMI 5 mM glucose + 10% dialyzed FBS

| Compound | cell viability (SEM cells [1]; 0.000781 µM) [%] | cell viability (SEM cells [1]; 0.00234 µM) [%] | cell viability (SEM cells [1]; 0.00702 µM) [%] | cell viability (SEM cells [1]; 0.0211 µM) [%] | cell viability (SEM cells [1]; 0.0632 µM) [%] | cell viability (SEM cells [1]; 0.19 µM) [%] | cell viability (SEM cells [1]; 0.569 µM) [%] | cell viability (SEM cells [1]; 1.71 µM) [%] | cell viability (SEM cells [1]; 5.12 µM) [%] | cell viability (SEM cells [1]; 15.4 µM) [%] | cell viability (SEM cells [1]; 46.1 µM) [%] | AUC of viability dose-response curve (NOMO1; HPLM + 10% dialyzed FBS) | AUC of viability dose-response curve (NOMO1; RPMI 5 mM glucose + 10% FBS) | AUC of viability dose-response curve (NOMO1; [3]) | AUC of viability dose-response curve (SEM cells [2]; HPLM + 10% dialyzed FBS) | AUC of viability dose-response curve (SEM cells [2]; RPMI 5 mM glucose + 10% FBS) | AUC of viability dose-response curve (SEM cells [2]; [3]) | AUC of viability dose-response curve (P12-Ichikawa; HPLM + 10% dialyzed FBS) | AUC of viability dose-response curve (P12-Ichikawa; RPMI 5 mM glucose + 10% FBS) | AUC of viability dose-response curve (P12-Ichikawa; [3]) |
| --- | --- | --- | --- | --- | --- | --- | --- | --- | --- | --- | --- | --- | --- | --- | --- | --- | --- | --- | --- | --- |
| C[C@@H]1C/C=C/C=C/C=C/C=C/[C@@H](O[C@@H]2O[C@H](C)[C@@H](O)[C@H](N)[C@@H]2O)C[C@@H]2O[C@](O)(C[C@@H](O)C[C@@H]3O[C@H]3/C=C/C(=O)O1)C[C@H](O)[C@H]2C(=O)O | 108 | 120 | 103 | 129 | 131 | 119 | 124 | 106 | 115 | 120 | 114 | 449 | 460 | 457 | 475 | 461 | 462 | 439 | 466 | 461 |
| CC(C)OC(=O)C(C)(C)Oc1ccc(C(=O)c2ccc(Cl)cc2)cc1 |  |  |  |  |  |  |  |  |  |  |  | 469 | 459 | 466 | 446 | 423 | 442 | 447 | 446 | 464 |
| COc1ccc(C(=O)N2CCCC2=O)cc1 |  |  |  |  |  |  |  |  |  |  |  | 447 | 456 | 467 | 449 | 422 | 461 | 447 | 456 | 439 |
| O=C1NCCc2[nH]c(-c3ccncc3)cc21 | 106 | 118 | 119 | 128 | 133 | 140 | 147 | 149 | 149 | 41.2 | 8.55 | 428 | 439 | 431 | 421 | 423 | 430 | 433 | 428 | 426 |
| CC[C@@H]1C(=O)N(C)c2cnc(Nc3ccc(C(=O)NC4CCC(N5CCN(CC6CC6)CC5)CC4)cc3OC)nc2N1C(C)C (stereo not given in full) |  |  |  |  |  |  |  |  |  |  |  | 276 | 259 | 259 | 199 | 227 | 221 | 201 | 225 | 225 |
| C[C@]1(CO)CN(c2cc(C(=O)Nc3ccc4c(c3)-c3c(c(C(N)=O)nn3-c3ccc(F)cc3)CC4)c(Cl)cn2)C[C@@]1(C)CO |  |  |  |  |  |  |  |  |  |  |  | 446 | 457 | 445 | 421 | 317 | 422 | 418 | 423 | 422 |
| CC(C)(C)c1nc(-c2cccc(N[S+](=O)([O-])c3c(F)cccc3F)c2F)c(-c2ccnc(N)n2)s1 |  |  |  |  |  |  |  |  |  |  |  | 423 | 447 | 434 | 439 | 430 | 425 | 428 | 409 | 385 |
